Here are results for seven molecules from patent publication US20240166641A1, “HETEROCYCLES AND USES THEREOF” (Kumquat Biosciences Inc., priority 2021, published 2024).

What is called IC50 is the concentration that inhibits the measured activity by half.

For assay [1], the target named is T1, PTPN2 (Homo sapiens, UniProt P17706).
T1 sequence (P17706 1-415): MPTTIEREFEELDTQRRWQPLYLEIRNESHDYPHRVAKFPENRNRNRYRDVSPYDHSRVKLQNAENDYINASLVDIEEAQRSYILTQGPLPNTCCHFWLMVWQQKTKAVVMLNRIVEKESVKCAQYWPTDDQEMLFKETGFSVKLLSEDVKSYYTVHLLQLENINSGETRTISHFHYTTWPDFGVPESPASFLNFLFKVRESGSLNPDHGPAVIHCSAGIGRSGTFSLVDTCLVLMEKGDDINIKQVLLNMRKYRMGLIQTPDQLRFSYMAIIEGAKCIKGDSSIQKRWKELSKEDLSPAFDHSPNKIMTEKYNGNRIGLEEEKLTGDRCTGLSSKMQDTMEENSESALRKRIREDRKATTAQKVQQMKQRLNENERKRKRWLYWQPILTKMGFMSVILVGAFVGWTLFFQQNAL
Nature of the assay: Phosphatase activity assay (Bio-Biochem-DiFMUP), PTPN2. In kind it is biochemical. As to conditions: DiFMUP substrate, room temperature. A digest of the protocol:
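Buffer was 50 mM Bis-Tris pH 6.3, 2 mM EDTA, 5 mM DMH, with 10 μM FDP or DiFMUP substrate, enzyme added last, at room temperature. Fluorescent product was read continuously for 15–30 min (DiFMU ex 360/em 450 nm; FMP ex 440/em 530 nm). Initial rates against 10-point inhibitor series were fitted with a 4-parameter equation to give IC50.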

The test system of assay [2] is C57B3L/6 mouse primary T cells. In words: T-cell activation: CD25 expression on primary T cells stimulated with anti-CD3/CD28. In kind it is cell-based. As to conditions: 10 uM compound, primary T cells stimulated with antibodies to CD3 and CD28. On the procedure:
The increase of T cell activation and most importantly T cell function is a strategy for novel immune oncology approaches to promote tumor immunity. In vitro assays using wildtype C57B3L/6 mouse primary T cells are commonly used to assess the impact of compound on T cell activation and function. To assess the ability of compounds disclosed here (e.g., PTPN2 inhibitors) to stimulate T cell activation, primary T cells stimulated with antibodies to CD3 and CD28 are treated with or without exemplary compounds (at 10 uM) disclosed herein are stained with antibodies directed to T-cell activation markers, such as CD25. Additional markers including without limitation CD69, SLAMF6, TIM3, and PD1 can also be employed as a proxy for T cell activation.

Assay [3] has as its system OT-1 cells. In words: T-cell activation: intracellular production of IFNγ and TNFα in exhausted OT-1 cells. In kind it is cell-based. To be noted: 10 uM compound, OT-1 cells restimulated with 1 μM OVA, read-out: % TNFa + /IFNg + production in compound-treated cells (uM compound) relative to negative control (DMSO). On the procedure: 1*10^6 OT-1 cells are seeded in a 24well in a volume of 1 mL of RPMI/10% FCS, and activated with 10 nM OVA protein for 48 h. Cells are then split 1:4 into 96well plates after two washes in warm media. To induce exhaustion, cells are then expanded for 3 days in the presence of vehicle control or a compound described herein (e.g., PTPN2 inhibitor) various concentrations, as well as 5 ng/ml IL-7 and 5 ng/ml IL-15, with the addition of fresh OVA on each day. After this point, cells are treated with Brefeldin A and restimulated with 1 μM of OVA for 4-6h, and cells are stained to assess production of IFNγ and TNFα intracellularly by flow cytometry. The results are shown as increase in percentage production of IFNγ and TNFα in cells treated with an exemplified compound at 10 uM, relative to a negative control (DMSO) of cells without being treated with the compound but merely DMSO (a solvent in which exemplified compounds are dissolved). See Table 10 below summarizes percentage increase in IFNγ and TNFα intracellular production in cells treated with an exemplified compound (at 10 uM) or without it, relative to a negative control (DMSO).

For `CC(C)CCNc1ccc2cc(O)c(N3CC(=O)NS3(=O)=O)c(F)c2n1` [Compound 117], in assay [1], the IC50 is ≤ 1 µM. Moreover, the “% CD25 expression in cells treated with subject compounds relative to negative control (DMSO)” value in assay [2] is listed as 363%. In addition, in assay [3], the activity at 10 µM came to 236%.

For `CC(C)CCOc1ccc2cc(O)c(N3CC(=O)NS3(=O)=O)c(F)c2n1` [Compound 135, 5-(8-fluoro-6-hydroxy-2-(isopentyloxy)quinolin-7-yl)-1,2,5-thiadiazolidin-3-one 1,1-dioxide], in assay [1], the IC50 was ≤ 1 µM. The “% CD25 expression in cells treated with subject compounds relative to negative control (DMSO)” value in assay [2] is 431%. The activity at 10 µM in assay [3] is 504%.

As to `O=C1CN(c2c(O)cc3ccc(OCC4CCS(=O)(=O)CC4)nc3c2F)S(=O)(=O)N1` [Compound 143], the IC50 in assay [1] was ≤ 1 µM. Also, in assay [2], the “% CD25 expression in cells treated with subject compounds relative to negative control (DMSO)” value came to 323%. Moreover, the activity at 10 µM in assay [3] was determined as 174%.

As for `CNc1ccc2cc(O)c(N3CC(=O)NS3(=O)=O)c(F)c2n1` [Compound 153], in assay [1], the concentration for half-maximal inhibition (IC50) is ≤ 1 µM. The activity at 10 µM in assay [3] was 132%.

Consider `COc1ccc2cc(O)c(N3CC(=O)NS3(=O)=O)c(F)c2n1` [Compound 154], for which the concentration for half-maximal inhibition (IC50) in assay [1] is ≤ 1 µM. Further, the activity at 10 µM in assay [3] was found to be 152%.

As to `CN1CCCC(COc2ccc3cc(O)c(N4CC(=O)NS4(=O)=O)c(F)c3n2)C1` (stereo not drawn) [Compound 176], in assay [1], the half-inhibitory concentration (IC50) is ≤ 1 µM. Also, the “% CD25 expression in cells treated with subject compounds relative to negative control (DMSO)” value in assay [2] is recorded as 206%. Also, the activity at 10 µM in assay [3] is 193%.

Consider `CN(C)CCOc1ccc2cc(O)c(N3CC(=O)NS3(=O)=O)c(F)c2n1` [Compound 178], for which, in assay [1], the IC50 is ≤ 1 µM. The activity at 10 µM in assay [3] came out at 168%.
